Measured values published in paper PMC6541264, “Molecular mechanisms involved in drug-induced liver injury caused by urate-lowering Chinese herbs: A network pharmacology study and biology experiments” (PLoS ONE, 2019).

Columns and labels:
Assay type in all cases: cell-based, human
L-02 cells [1] = test: Biochemical indicators of hepatotoxicity (ALT, AST, LDH, ALP activity) of L-02 cells, without and with p38 inhibitor SB203580
Protocol: (§1) The normal hepatic cell (L02) cell lines were obtained from the National Infrastructure of Cell Line Resources (Chinese Academy of Medical Sciences, Beijing, China), and maintained in Dulbecco’s modified Eagle’s medium (DMEM, 10-013-CVR) supplemented with 10% fetal bovine serum (FBS, Hyclone), 1% penicillin and streptomycin (PS, 100 IU/ml penicillin, 100 μg/ml streptomycin, Mediatech, 30-002-CI). All cells were incubated in a humidified atmosphere at 37°C with 5% CO2.
To determine how potential liver injury-compounds affected biochemical indicators of L-02 cells, we investigated the activities of AST, ALT, LDH and ALP in cell migration capacity under the different representative compounds conditions (representative compounds group), the inhibitor conditions (inhibitor group), and the negative control. For these experiments, three replicates were made for each concentration of the different representative compounds with liver injury, and each group was established three holes and cultured in 6 times repeatedly. […] Subsequently, the supernatant extraction of L02 cells was collected and centrifuged to detect the activities of AST, ALT, LDH, and ALP by chromatometry method.
To further and fully elucidating the mechanism of the liver injury caused by the representative compounds from urate-lowering Chinese herbs, we chose the p38α inhibitor, SB203580 to verify our findings. […] The specific composition information was shown in S2 Table. […] The Specific specific composition information is was shown in S4 Table.

p38α = test: Western blot, expression of p-p38α/p38α in L-02 cells, without and with inhibitor SB203580
Source text: After the examination of biochemical indicators for hepatotoxicity in the cell, the expression of crucial liver injury protein in L02 cell lines among different groups was compared by Western blot analysis. Briefly, the proteins from different groups were harvested and lysed using lysis buffer (Sigma-Aldrich) containing a proteinase inhibitor cocktail (Sigma-Aldrich), the equal amounts of protein were separated by electrophoresis on a pre-cast 10% SDS-polyacrylamide gel (Bio-Rad, Hercules, CA) and transferred to polyvinylidene difluoride membranes (Millipore, Bedford, MA). Next, the membrane was blocked in TBST-T containing 5% skim milk for 2 h at room temperature and probed with anti-beta-catenin, and incubated overnight with the indicated primary antibody, followed by incubation with the secondary antibodies at room temperature for another 2 h. Finally, all the immune blots were visualized by enhanced chemiluminescence (Pierce Biotechnology, Inc., Rockford, IL, USA) and western blots were performed at least three times.
According to the results of network pharmacology, we examined the expression levels of p38α. […] The Specific specific composition information is was shown in S3 Table. […] However, the mechanism of saikosaponin D causing liver injury still remained unclear.
To further and fully elucidating the mechanism of the liver injury caused by the representative compounds from urate-lowering Chinese herbs, we chose the p38α inhibitor, SB203580 to verify our findings. Seemingly, the ALT, AST, ALP, and LDH activities of each group decreased to varying degrees under the influence of inhibitor. The specific composition information was shown in S2 Table. […] The Specific specific composition information is was shown in S4 Table.

[2] = MTT assay, cell viability of L-02 cells; conditions: human, L-02 (L02) normal hepatic cells, L-02, MTT, 24 h, read-out: cells viabilityrate
Protocol: as §1
(§2) L-02 cells were trypsinized by 0.25% trypsin after reaching the confluence of 70–80% and plated in 96-well plates at the density of 1.6 × 10^3 […]. And L-02 cells were cultured for 24 hours in vitro before exposure to varying concentrations of different representative compounds with liver injury for further incubating in another 24 hours. Then, 20 μl of 0.25 mg/ml3-(4,5-dimethylthiazol-2-yl)-2,5-diphenyltetrazolium bromide (MTT)-tetrazolium salts (Sigma-Aldrich Corp., St. Louis, MO, USA) in PBS was added to each hole in 96-well plates. After 4 hours of incubation, the formazan crystals were dissolved by 150μl Dimethyl Sulphoxide (DMSO), and shocked to dissolve thoroughly, then the cell viability was measured by MTT method at 570 nm. All experiments were repeated in triplicate independently.

L-02 cells [3] = test: MTT assay, cell viability of L-02 cells; conditions: dose of 60–90 μmol/L
Protocol: as §1, §2

[4] = Table 5, L-02 supernatant, 24 h, 40μmol/L
[5] = Table 5, L-02 supernatant, 24 h, 60μmol/L
[6] = Table 5, L-02 supernatant, 24 h, 80μmol/L

Compound: C[S+]([O-])c1ccc(-c2nc(-c3ccncc3)c(-c3ccc(F)cc3)[nH]2)cc1 (stereo not shown) [SB203580, reference compound]
- effect on component-induced cell damage of L-02 cells, in words (L-02 cells [1]; SB203580 at the dose of 20μmol/L added to components): attenuate the component-induced cell damage

Compound: COc1ccc2cc1Oc1ccc(cc1)C[C@H]1c3cc(c(OC)cc3CCN1C)Oc1c(OC)c(OC)cc3c1[C@H](C2)N(C)CC3 [Tetrandrine]
- p-p38α/p38α (p38α; S3 Table, L-02, 24 hours of incubation, 40μmol/L): 1.03±0.29
- p-p38α/p38α (p38α; S3 Table, L-02, 24 hours of incubation, 60μmol/L): 0.98±0.14
- p-p38α/p38α (p38α; S3 Table, L-02, 24 hours of incubation, 80μmol/L): 1.26±0.52
- p-p38α/p38α (p38α; S4 Table, L-02, 24 hours, 40μmol/L+inhibitor (SB203580)): 0.81±0.03
- p-p38α/p38α (p38α; S4 Table, L-02, 24 hours, 40μmol/L, no inhibitor): 0.97±0.03
- p-p38α/p38α (p38α; S4 Table, L-02, 24 hours, 60μmol/L+inhibitor (SB203580)): 0.98±0.17
- p-p38α/p38α (p38α; S4 Table, L-02, 24 hours, 60μmol/L, no inhibitor): 0.79±0.24
- p-p38α/p38α (p38α; S4 Table, L-02, 24 hours, 80μmol/L+inhibitor (SB203580)): 1.28±0.26
- p-p38α/p38α (p38α; S4 Table, L-02, 24 hours, 80μmol/L, no inhibitor): 1.17±0.07
- ALT (L-02 cells [1]; S2 Table, L-02, 40μmol/L, no inhibitor): 16.55± 0.71 U/L
- AST (L-02 cells [1]; S2 Table, L-02, 60μmol/L, no inhibitor): 5.64± 0.56 U/L
- ALP (L-02 cells [1]; [4]): 16.55±0.71 ^*^Δ King's unit /100ml
- ALT (L-02 cells [1]; [4]): 4.36±0.35 U/L
- AST (L-02 cells [1]; [4]): 713.48±49.44 ^*^Δ U/L
- LDH (L-02 cells [1]; [4]): 0.79±0.08 U/L
- ALT (L-02 cells [1]; [5]): 5.01±1.20 U/L
- AST (L-02 cells [1]; [5]): 705.81±98.97^Δ U/L
- LDH (L-02 cells [1]; [5]): 0.82±0.16 U/L
- ALP (L-02 cells [1]; [6]): 17.45±0.35 ^**^ΔΔ King's unit /100ml
- ALT (L-02 cells [1]; [6]): 4.84±0.86 U/L
- AST (L-02 cells [1]; [6]): 736.08±77.41 ^*^Δ U/L
- LDH (L-02 cells [1]; [6]): 0.93±0.07 U/L
- viability at 24 h, 40 μmol/L ([2]; 40 μmol/L): 101 ± 9.72%
- viability at 24 h, 60 μmol/L ([2]; 60 μmol/L): 91.8 ± 4.63%
- viability at 24 h, 80 μmol/L ([2]; 80 μmol/L): 83.3 ± 5.22%
- cell survival rate, in words (L-02 cells [3]): lower cell survival rate

Compound: Evodiamine
- ratios of p-p38α/p38α expression compared with the blank groups, in words (p38α; L-02, 10μmol/L diosgein, 2000μmol/L baicalin, 60μmol/L terandrine, 6μmol/L evodiamine): increased
- p-p38α/p38α (p38α; S3 Table, L-02, 24 hours of incubation, 5μmol/L): 1.13±0.33
- p-p38α/p38α (p38α; S3 Table, L-02, 24 hours of incubation, 6μmol/L): 1.39±0.34
- p-p38α/p38α (p38α; S3 Table, L-02, 24 hours of incubation, 7μmol/L): 1.03±0.48
- p-p38α/p38α (p38α; S4 Table, L-02, 24 hours, 5μmol/L+inhibitor (SB203580)): 0.82±0.02
- p-p38α/p38α (p38α; S4 Table, L-02, 24 hours, 5μmol/L, no inhibitor): 1.74±0.42
- p-p38α/p38α (p38α; S4 Table, L-02, 24 hours, 10μmol/L+inhibitor (SB203580)): 0.47±0.03
- p-p38α/p38α (p38α; S4 Table, L-02, 24 hours, 10μmol/L, no inhibitor): 1.45±0.29
- p-p38α/p38α (p38α; S4 Table, L-02, 24 hours, 15μmol/L+inhibitor (SB203580)): 0.91±0.22
- p-p38α/p38α (p38α; S4 Table, L-02, 24 hours, 15μmol/L, no inhibitor): 1.39±0.77
